Assay results published in patent US20230071390A1, “ASSESSMENT OF PR CELLULAR SIGNALING PATHWAY ACTIVITY USING MATHEMATICAL MODELLING OF TARGET GENE EXPRESSION” (InnoSIGN B.V., priority 2019, published 2023).

Legend:
[1] = test system: PR-B cellular signaling pathway; assay: PR-B pathway activity in paired pre/post letrozole treatment breast cancer samples (GSE10281); assay type: in vivo, human; details: ER positive breast cancer patients, 3 months neoadjuvant treatment
From the text: (§1) Herein, an exemplary Bayesian network model as shown in FIG. 1 was used to model the transcriptional program of the PR cellular signaling pathway in a simple manner. The model consists of three types of nodes: (a) a transcription factor (TF) element (with states “absent” and “present”) in a first layer 1; (b) target genes TG1, TG2, TGn (with states “down” and “up”) in a second layer 2, and; (c) measurement nodes linked to the expression levels of the target genes in a third layer 3. These can be microarray probesets PS1,1, PS1,2, PS1,3, PS2,1, PSn,1, PSn,m (with states “low” and “high”), as preferably used herein, but could also be other gene expression measurements such as RNAseq or RT-qPCR.
(§2) Once the exemplary Bayesian network model is built and calibrated (see below), the model can be used on microarray data of a new sample by entering the probeset measurements as observations in the third layer 3, and inferring backwards in the model what the probability must have been for the TF element to be “present”. Here, “present” is considered to be the phenomenon that the TF element is bound to the DNA and is controlling transcription of the cellular signaling pathway's target genes, and “absent” the case that the TF element is not controlling transcription.
(§3) The models are identified by their target gene list and calibration set. […]

[2] = test system: PR cellular signaling pathway; assay: PR pathway activity inferred by Bayesian network models, PR-B expressing hMEC breast cell line (GSE24468); assay type: cell-based; details: PR-A, PR-B and PR-A&B models; 10 nM, 16h; versus control treated samples
From the text: as §1, §2, §3

[3] = test system: PR cellular signaling pathway; assay: PR pathway activity inferred by Bayesian network models, ishikawa IKPR-AB36 endometrium cell line (GSE29435); assay type: cell-based; details: PR-A, PR-B and PR-A&B models; 1 nM, 48h; versus control treated samples
From the text: as §1, §2, §3

[4] = test system: tumor growth in xenograft models; details: cited from earlier work

N#Cc1ccc(C(c2ccc(C#N)cc2)n2cncn2)cc1 [letrozole]
Normalized PR-B cellular signaling pathway activity levels, post vs. pre treatment ([1]; non-responders): remain similar to pre-treatment | Mean normalized PR-B cellular signaling pathway activity, post vs. pre treatment ([1]; responders): goes up

CCC(=O)[C@@]1(C)CC[C@H]2[C@@H]3CCC4=CC(=O)CCC4=C3CC[C@@]21C [R5020, promegestone]
PR cellular signaling pathway activity levels [2]: significantly higher

CC(=O)O[C@]1(C(C)=O)CC[C@H]2[C@@H]3C[C@H](C)C4=CC(=O)CC[C@]4(C)[C@H]3CC[C@@]21C [MPA, medroxyprogesterone acetate]
PR cellular signaling pathway activity levels (odds PR on:off) [3]: significantly higher

CC(=O)[C@H]1CC[C@H]2[C@@H]3CCC4=CC(=O)CC[C@]4(C)[C@H]3CC[C@]12C [progesterone, Progesterone]
Effect over tamoxifen regarding controlling tumor growth [4]: additive effect
